From patent US5028733A, “Prostaglandins” (National Research Development Corporation, priority 1980, dated 1991)
“And” between values parts separate entries of the source, which are not always exact repeats. Identical values can stand only once.

Key:
human platelets = molecular target: T1, human platelets (Homo sapiens, UniProt P21731); test: Human platelet system, antagonism of aggregation by 11,9-(epoxymethano) PGH2 (affinity constant KB); assay type: cell-based; conditions: in words
T1 construct: Platelet-rich plasma is obtained from fresh, citrated human blood; endogenous in cells; host or cells: human platelets in platelet-rich plasma
T1 sequence (P21731 1-343): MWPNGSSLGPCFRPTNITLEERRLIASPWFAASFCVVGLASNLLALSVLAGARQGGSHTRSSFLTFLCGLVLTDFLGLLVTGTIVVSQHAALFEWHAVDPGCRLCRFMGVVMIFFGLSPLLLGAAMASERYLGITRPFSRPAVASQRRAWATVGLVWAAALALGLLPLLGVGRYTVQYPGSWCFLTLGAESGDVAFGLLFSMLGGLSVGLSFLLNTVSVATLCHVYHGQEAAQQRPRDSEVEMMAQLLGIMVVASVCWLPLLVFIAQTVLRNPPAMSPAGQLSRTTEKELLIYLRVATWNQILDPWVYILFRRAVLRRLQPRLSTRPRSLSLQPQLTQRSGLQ
Description: Platelet-rich plasma is obtained from fresh, citrated human blood. Addition of the 11,9-(epoxymethano) PGH2 (1×10^-7 to 5×10^-7 M) causes immediate aggregation recorded as an increase in light transmission (600 nm). In a second experiment the individual compounds are added five minutes previous to the addition of the PGH2 analogue. The dose of the PGH2 analogue added is then increased to a level which gives a similar response to that obtained in the absence of antagonist. The affinity constant, KB, for the compound is calculated according to the Gaddum - Schild Equation (based on Law of Mass Action).
(§1) [B]=molar concentration of compound

[1] = system: bronchoconstriction (collagen); test: Modified Konzett-Rossler test, inhibition of bronchoconstriction by collagen; assay type: in vivo, guinea pig; conditions: 5 min after compound; 1 mg/kg i.v.; insufflation pressure
Description: (§2) In three experiments, each conducted on one male albino guinea pig ([…]) anaesthetised with a mixture of allyl barbituric acid and urethane, the guinea pig was given intravenously a dose of 50 μg/kg of collagen, followed 15 minutes later by 0.35 μg/kg of 11,9-(epoxymethane) PGH2 to give two reliable platelet aggregation responses for each material. After a further period of 10 minutes, the guinea pig was treated intravenously with a dose of 1 mg/kg of 5-endo-(6'-carboxyhex-2'Z-enyl)-6-exo{1'-[N-(phenylthiocarbamoyl)hydrazono]-ethyl}-bicyclo [2,2,1] heptane prepared as described in Example 2. Commencing 5 minutes after the administration of the bicyclo [2,2,1] heptane, the alternate treatments at 15 minute intervals with collagen and 11,9-(epoxymethano) PGH2 were repeated, the second treatment with the latter compound being followed after 15 minutes by a final treatment with collagen. (In the first experiment, only, the last administration of each compound was omitted).
(§3) The same three experiments on guinea pigs described under 1(b) are used to give a measure in a modified Konzett-Rossler test of the inhibition produced by 5-endo-(6'-carboxyhex-2'Z-enyl)-6-exo{1'[N-(phenylthiocarbamoyl)-hydrazono]ethyl}-bicyclo [2,2,1] heptane, prepared as described in Example 2, of the bronchoconstriction resulting from administration of the collagen and the PGH2 derivative. […]

rabbit aorta [2] = test: Block of the contractile action of noradrenaline in the rabbit aorta strip test; assay type: cell-based; conditions: in words
[3] = system: platelet aggregation (collagen); test: In vivo inhibition of platelet aggregation in guinea pigs (collagen); set-up: species or system male albino guinea pig
Description: (§4) The technique employed in this test was basically that of Smith and Freuler, Bibl. anat., 1973, 12, 229-234, which utilises the Technicon Autocounter and provides a completely automated system for counting platelets and cells. Blood is continuously sampled from a suitable artery and to avoid the use of an anticoagulant, a double cannula is used which enables 3.8%, w/v aqueous trisodium citrate to be pumped to the tip of the cannula and the citrated blood then to be removed at 0.1 ml/minute and diluted in the manifold where the red cells are lysed with 1% w/v ammonium oxalate/0.002% w/v saponin solution. The platelets are then counted optically and the count continuously recorded on precalibrated chart paper.
as §2

[4] = system: platelet aggregation (collagen); test: In vivo inhibition of platelet aggregation in rats (collagen); set-up: species or system male Sprague-Dawley rats; conditions: for Percentage Fall in platelet count on administering collagen, After, mean: mean of 6 rats, compound 1 mg/kg i.v.
Description: as §4
Each of a group of six male Sprague-Dawley rats anaesthetised with pentabarbitone was injected intravenously with 40 μg/kg of collagen followed, 15 minutes later, by 80 μg/kg of collagen, which gives a dose-dependent and reproducible fall in platelet count. Ten minutes after the second injection of collagen, the rats were treated intravenously with a dose of 1 mg/kg of 5-endo-(6'-carboxyhex-2'Z-enyl)-6-exo-{1'-[N-(phenylthiocarbamoyl)-hydrazono]ethyl}-bicyclo [2,2,1] heptane prepared as described in Example 2. At 5 and 20 minutes after the administration of this compound a further 40 μg/kg and 80 μg/kg of collagen, respectively, were administered. The levels of platelet aggregation resulting from the administration of the collagen before and after the administration of the bicyclo [2,2,1] heptane were recorded continuously as indicated above.

platelet = test: Block of the aggregatory action of arachidonic acid on platelets; assay type: cell-based; conditions: in words
rabbit aorta [5] = test: Rabbit aorta strip, antagonism of contraction by 11,9-(epoxymethano) PGH2 (affinity constant KB); assay type: cell-based; conditions: in words
Description: Spiral strips of thoracic aorta are suspended in Kreb's-Henseleit solution and aerated with 95% O2 /5% CO2 at 37° C. Tension changes are recorded with a Glass FTO3 force transducer. Initially, cumulative dose response curves to 11,9-(epoxymethano) PGH2 (2×10^-9, 1×10^-8, 5×10^-8 and 2.5×10^-7 M) are obtained. In a second experiment the individual compounds are added 30 minutes previous to the addition of the series of agonist doses. In the case of each compound, the affinity constant, KB, for the compound is calculated according to the Gaddum - Schild Equation (based on Law of Mass Action).
as §1

[6] = system: platelet aggregation (11,9-(epoxymethano) PGH2); test: In vivo inhibition of platelet aggregation in guinea pigs (11,9-(epoxymethano) PGH2); set-up: species or system male albino guinea pig
Description: as §4, with “paper. In three experiments, each conducted on one male albino guinea pig ([…]) anaesthetised with a mixture of allyl barbituric acid and urethane, the guinea pig was given intravenously a dose of 50 μg/kg of collagen, followed 15 minutes later by 0.35 μg/kg of 11,9-(epoxymethane) PGH2 to give two reliable platelet aggregation responses for each material. […] (In the first experiment, only, the last administration of each compound was omitted).” for “paper.”

[7] = system: bronchoconstriction (PGH2 derivative); test: Modified Konzett-Rossler test, inhibition of bronchoconstriction by 11,9-(epoxymethano) PGH2; assay type: in vivo, guinea pig; conditions: 5 min after compound; 1 mg/kg i.v.; insufflation pressure
Description: as §2, §3

[8] = collagen 50 μg/kg, average of experiments
[9] = PGH2 deriv. 0.35 μg/kg, average of experiments

antagonist in the platelet test (human platelets): antagonists in the platelet test
Compound: CC(=NNC(=S)Nc1ccccc1)[C@H]1[C@@H]2CC[C@@H](C2)[C@@H]1C/C=C\CCCC(=O)O (relative stereo) [Example 2, 5-endo(6'-Carboxyhex-2'Z-enyl)-6-exo-{1'-[N-(phenylthiocarbamoyl)-hydrazono]-ethyl}-bicyclo [2,2,1] heptane]
inhibition of the bronchoconstricting effect of collagen [1]: complete inhibition
contractile action of noradrenaline (α-adrenoceptors) (rabbit aorta [2]): do not block the contractile action of noradrenaline
Percentage Inhibition of platelet aggregation, 5 min ([3]; collagen 50 μg/kg, 5 min after 1 mg/kg i.v. compound, single animal): 73.6 Percentage and 64.5 Percentage and 68.3 Percentage
Percentage Inhibition of platelet aggregation, 35 min ([3]; collagen 50 μg/kg, 35 min after 1 mg/kg i.v. compound, single animal): 67.3 Percentage and 64.4 Percentage and 56.1 Percentage
Percentage Inhibition of platelet aggregation, 65 min ([3]; collagen 50 μg/kg, 65 min after 1 mg/kg i.v. compound, single animal): 56.1 Percentage and 51.5 Percentage
Percentage Inhibition of platelet aggregation, 5 min, Average [3, 8]: 68.8 Percentage
Percentage Inhibition of platelet aggregation, 35 min, Average [3, 8]: 62.6 Percentage
Percentage Inhibition of platelet aggregation, 65 min, Average [3, 8]: 53.8 Percentage
platelet aggregation produced by collagen, in words ([3]; guinea pig, 1 mg/kg i.v.): caused an inhibition of the platelet aggregation
average response to collagen ([4]; 40 μg/kg collagen, before vs after compound 1 mg/kg i.v.): significantly reduced
P, one tailed paired t-test, reduction of average response ([4]; 40 μg/kg collagen, t=2.25 (5Df)): < 0.05
Percentage Fall in platelet count on administering collagen, After, individual rat ([4]; collagen 40 μg/kg i.v., 5 min after 1 mg/kg i.v. compound): 14.0 Percentage and 13.3 Percentage and 14.6 Percentage and 25.0 Percentage and 18.5 Percentage and 19.4 Percentage
Percentage Fall in platelet count on administering collagen, After, mean ([4]; collagen 40 μg/kg): 17.47 Percentage
Percentage Fall in platelet count on administering collagen, After, individual rat ([4]; collagen 80 μg/kg i.v., 20 min after 1 mg/kg i.v. compound): 18.3 Percentage and 27.1 Percentage and 28.4 Percentage and 34.4 Percentage and 34.5 Percentage and 28.2 Percentage
Percentage Fall in platelet count on administering collagen, After, mean ([4]; collagen 80 μg/kg): 28.5 Percentage
aggregatory action of arachidonic acid (platelet): block the aggregatory action of arachidonic acid
antagonist in the rabbit aorta strip test (rabbit aorta [5]): pure antagonists in the rabbit aorta strip test
Percentage Inhibition of platelet aggregation, 20 min ([6]; PGH2 deriv. 0.35 μg/kg, 20 min after 1 mg/kg i.v. compound, single animal): 75.7 Percentage and 85.2 Percentage and 83.7 Percentage
Percentage Inhibition of platelet aggregation, 50 min ([6]; PGH2 deriv. 0.35 μg/kg, 50 min after 1 mg/kg i.v. compound, single animal): 65.5 Percentage and 64.6 Percentage
Percentage Inhibition of platelet aggregation, 20 min, Average [6, 9]: 81.5 Percentage
Percentage Inhibition of platelet aggregation, 50 min, Average [6, 9]: 65.1 Percentage
platelet aggregation produced by 11,9-(epoxymethano) PGH2, in words ([6]; guinea pig, 1 mg/kg i.v.): caused an inhibition of the platelet aggregation
inhibition of the bronchoconstricting effect of the PGH2 derivative [7]: complete inhibition
